Consider three compounds from patent US20230165817A1, “DOPAMINERGIC MIMETICS” (TDELTAS LIMITED, priority 2004, published 2023).

Structures are written as SMILES. Some results are limits rather than exact numbers.

The test system of data set [1] is electrical power of four rat brain areas (frontal cortex, hippocampus, striatum, reticular formation). Nature of the data set: EEG measurements (Tele-Stereo-EEG) in freely-moving rats after single intraperitoneal injection. It counts as in vivo, Fisher rats. An excerpt: Analysis of brain field potentials (“Tele-Stereo-EEG”) has been proven to be a very sensitive tool for the characterization of drug effects on the central nervous system (Dimpfel et al., 1986). After administration of a centrally active drug, quantitative changes in the brain field potentials can be considered as a characteristic fingerprint of that particular drug. “Fingerprints” of more than 100 compounds have been obtained including 8 established drug categories, e.g. stimulants, sedatives, hallucinogenics, tranquilizers, analgesics, antidepressants, neuroleptics, and narcotics. Different dosages of the same drug cause quantitative changes in electrical power. […] Direct comparison with specific reference drugs, or by discriminant analysis with reference to an extensive fingerprint database, permits the detection of any possible similarities with established drugs. In general, “fingerprints” show prominent differences for drugs prescribed for different indications and are similar for drugs with similar indication (Dimpfel, 2003). Furthermore, the pattern of EEG changes in the rat is a useful tool in predicting possible changes in the EEG power spectrum in humans.
Adult Fisher rats (4-6 month of age and day-night converted, bodyweight approximately 400 g) were implanted with 4 bipolar concentric steel electrodes using a stereotaxic surgical procedure. According to the coordinates of Paxinos and Watson (1982), all four electrodes were placed 3 mm lateral within the left hemisphere. Anterior coordinates were 12.2, 5.7, 9.7 and 3.7 mm for frontal cortex, hippocampus, striatum and reticular formation, respectively. A baseplate carrying the electrodes and a 5-pin-plug was fixed to the skull by dental cement attached to 3 steel screws fixed into the skull. Animals were given two weeks for recovery from the surgical procedure.
EEG signals were recorded from frontal cortex, hippocampus, striatum and reticular formation and were amplified and processed as described by Dimpfel et al. (1986). After automatic artefact rejection, signals were collected in sweeps of 4 s duration and submitted to Fast Fourier transformation. The resulting electrical power spectra were divided into 6 frequency ranges: delta (0.8-4.5 Hz); theta (4.75-6.75 Hz); alpha1 (7.00-9.50 Hz); alpha2 (9.75-12.50 Hz); beta (12.75-18.50 Hz); beta2 (18.75-35.00 Hz). […] In an off-line procedure spectra were averaged to give 15 minute or longer periods for further statistical analysis.
Four doses of KTX 0101 (sodium (R)-3-hydroxybuytrate: 100, 300, 600 and 1000 mg/kg body weight) (supplied by Solvias AG, CH 4002 Basel, Switzerland, batch No: SO-1058.047.1.120) and a vehicle control (0.9% w/v saline) were administered intraperitoneally to a group of 12 animals using a crossover design with at least 3 drug holidays in between the applications. After a pre-drug period of 45 minutes for baseline recording, drug effects were observed continuously for 300 minutes. Changes of electrical power (μV2/W) are expressed as percentage of the 45 minute pre-drug values. Multivariate statistics were calculated according to Ahrens and Läuter (1974).

Data set [2] in a line: Plasma determination of (R)-3-hydroxybutyrate after intraperitoneal injection. It counts as in vivo, Sprague-Dawley rats. To be noted: rat. As for the experimental part:
(§1) One hundred and seventy-one male Sprague-Dawley rats (weight range 200-250 g) housed on a standard […] were used. Animals had free access to a standard pelleted rat diet and tap water at all times. KTX 0101 (sodium (R)-3-hydroxybuytrate; 100, 300, 600 and 1000 mg/kg body weight) supplied by Sigma (H6501, Lot 111K2618) was administered by intraperitoneal injection. Control animals received the appropriate 0.9% saline vehicle via the same route. Animals were killed by CO2 asphyxiation 0 h, 0.5 h, 1.0 h or 2.0 h after dosing and a terminal blood sample was collected by cardiac puncture. Blood was taken in lithium heparinised tubes and kept on ice prior to centrifugation to yield the plasma samples for analysis.
Commercial clinical assay kits for the determination of D-β-hydroxybutyrate were obtained from Randox Laboratories (Antrim, UK). The kit quantified NADH via the activity of β-hydroxybutyrate dehydrogenase measured as an increase in OD340 nm. An alkaline pH is necessary to drive the reaction equilibrium towards the production of NADH and acetoacetate.
This spectrophotometric assay was modified for application to a 96 well microplate format. The reaction rate was then determined from the increase in OD340 nm over a 1 minute time course, after allowing a necessary period for the reaction rate to settle.

The nature of data set [3]: Plasma determination of acetoacetate after intraperitoneal injection. It counts as in vivo, Sprague-Dawley rats. The settings on record: 30 min after dosing, rat. As to the method:
as §1
The assay developed for the determination of acetoacetate was based on previously published clinical assays (Li et al, 1980; McMurray et al, 1984). A different assay buffer was prepared (0.1M Na2PO4 adjusted to pH 7.0 with HCl) in order to shift the equilibrium of the reaction to production of β hydroxybutyrate and NAD+. Other modifications included the additional use of sodium oxalate at a final assay concentration of 20 mM to inhibit lactate dehydrogenase (LDH) present in the plasma samples. […]
Acetoacetate was measured via the reduction in OD340 nm over a 1 minute period after allowing for the reaction rate to settle.

The test system of data set [4] is electrical power of four rat brain areas (frontal cortex, hippocampus, striatum, reticular formation). To be noted: literature (Dimpfel et al., 1987; Dimpfel, 2003); cited from earlier work.

For the compound `C[C@@H](O)CC(=O)[O-].[Na+]` [KTX 0101, sodium (R)-3-hydroxybuytrate], the “Duration of EEG effects” value is 1 to 2 h in data set [1] (100 mg/kg body weight ip, rat) and around 2 h in data set [1] (600 mg/kg ip, rat, brain regions except reticular formation). Besides, the “Statistical significance of EEG changes” value in data set [1] (100 mg/kg body weight ip, rat) was “not statistically significant”; in data set [1] (300 mg/kg ip, rat), “only statistically significant in the reticular formation”; in data set [1] (600 mg/kg ip, rat, including first hour within striatum and all 24 variables), “statistically significant”; in data set [1] (1000 mg/kg ip, rat, even for the 4th hour within the reticular formation), “statistically significant”. Besides, the “Changes in EEG power spectrum (frequency changes)” value in data set [1] (100 mg/kg body weight ip, rat, vs pre-drug values) is “decrease of electrical power mainly with regard to alpha2”; in data set [1] (300 mg/kg ip, rat, vs pre-drug values), “decreases in alpha2 power throughout all brain regions”; in data set [1] (1000 mg/kg ip, rat) it was “identical pattern of change, but with more prominent decreases of power”. In addition, the “Duration of EEG pattern of changes” value in data set [1] (300 mg/kg ip, rat) is 2 h. Moreover, the “Duration of decreases in EEG power in the reticular formation” value in data set [1] (600 mg/kg ip, rat, reticular formation) is “persisted throughout the third hour”. Also, the “Duration of decreases of EEG power” value in data set [1] (1000 mg/kg ip, rat) is “lasting into the third hour”. The “Duration of decreases of EEG power in the reticular formation” value in data set [1] (1000 mg/kg ip, rat, reticular formation, total experimental time) came out at 5 h. Also, the “Similarity of qEEG fingerprint to drug classes by discriminant analysis” value in data set [1] (24 variables, 20th to 50th min after single-dose application, rat) was “close proximity to the dopamine reuptake inhibitor, cocaine and the dopamine releasing agent, d-amphetamine”. Besides, the “Period of greatest changes in EEG patterns” value in data set [1] (after ip injection, rat) was 5 to 65 min. The “EEG changes, summary over dose range” value in data set [1] (dose range 300 to 1000 mg/kg ip, rat) is “clear, dose- and time-dependent statistically significant changes”. Besides, the “Specific EEG frequencies changed” value in data set [1] (rat, ip) was “decrease the delta, theta and alpha2 EEG frequencies”. Also, the “EEG power spectrum changes, dose dependence” value in data set [1] (single ip injection, range 100 to 1000 mg/kg, freely-moving rats) was “clear, dose-dependent changes in the EEG power spectrum”. Also, the “Plasma concentration of (R)-3-hydroxybutyrate” value in data set [2] (100, 300, 600 and 1000 mg/kg ip) was “clear dose-dependent increases”. For the same compound, in data set [2] (100-1000 mg/kg ip, after injection), the “Time at which plasma (R)-3-hydroxybutyrate had returned to control values” was at most 1 h. Also, the “Time of highest elevations in plasma (R)-3-hydroxybutyrate” value in data set [2] (100-1000 mg/kg ip, first sample) amounted to 30 min. Moreover, the “Plasma concentration of acetoacetate” value in data set [3] (600 mg/kg ip) and in data set [3] (1000 mg/kg ip) was “significantly increased” each time.
Turning to `N[C@@H](Cc1ccc(O)c(O)c1)C(=O)O` [L-DOPA], the “EEG frequency changes of drugs enhancing dopaminergic function” value in data set [4] was “decrease delta, theta and alpha2 frequencies”.
With `Oc1cc2c(cc1O)C(c1ccccc1)CNCC2` (stereo not shown) [SKF 38393], in data set [4], the “EEG frequency changes of drugs enhancing dopaminergic function” value was “decrease delta, theta and alpha2 frequencies”.
